Measured values as given in patent US9725490B2, “ERAP1-derived peptide and use thereof” (TOKUSHIMA UNIVERSITY, priority 2011, dated 2017).

Assays:
Format in all cases: cell-based, human
[1] = tested on: MCF-7 cells; test: E2-dependent cell proliferation assay (MTT/CCK-8), MCF-7
Experimental: FIG. 6-1 is a diagram illustrating that ERAP1-peptide treatment suppresses ERα-dependent cell proliferation of breast cancer cell lines. (A) and (B) show the results of MTT assay by which the inhibition effect of the ERAP1-peptide in the E2-dependent cell proliferation was evaluated. MCF-7 cells were treated with the ERAP1-peptide (A, B) the ERAP1-scramble peptide (B) or the ERAP1-mutant peptide (B).
FIG. 7-1 is a diagram illustrating that ERAP1-peptide treatment suppresses ERα-dependent cell proliferation of breast cancer cell lines. […] KPL-3C cells were treated with the ERAP1-peptide, the scramble peptide or the mutant peptide. Then, immediately, the cells were stimulated with 10 nM E2 for 24 hours. […] Then, immediately, the cells were stimulated with 10 nM E2. Then, the ERAP1-peptide was added every day for […]. […] The arrow indicates addition of the ERAP1-peptide.
FIG. 7-3 is a diagram illustrating that ERAP1-peptide treatment suppresses ERα-dependent cell proliferation of breast cancer cell lines. […] MCF-7 cells were treated with 10 μM ERAP1-peptide. Then, immediately, the cells were stimulated with 10 nM E2 (white square). Then, 10 μM ERAP1-peptide was added every day for four days (black square).
FIG. 20 is a diagram illustrating the results of evaluations for the influence of the difference of the sequence on E2-dependent cell proliferation suppression effect. […] Then, immediately, the cells were stimulated with E2 for 24 hours.
MCF-7 cells were suspended in MEM (Invitrogen, Carlsbad, Calif., USA) reinforced with 10% FBS (Nichirei Biosciences, Tokyo, Japan), 1% antibiotic/antimycotic solution (Invitrogen), 0.1 mM NEAA (Tnvitrogen), 1 mM sodium pyruvate and 10 μg/ml insulin (Sigma, St. Louis, Mo., USA). Then, the cell suspension was seeded in a 48-well plate (2×10^4 cells/200 μl), a 24-well plate (1×10^5 cells/1 ml), a 6-well plate (5×10^5 cells/2 ml) or 10 cm dish (2×10^6 cells/10 ml). The cells were maintained at 37° C. in humidified atmosphere containing 5% carbon dioxide. On the next day of the seeding, the culture medium was exchanged with phenol red-free DMEM/F12 (Invitrogen) reinforced with FBS, an antibiotic/antimycotic solution, NEAA, sodium pyruvate and insulin. After 24 hours, the cells were treated with 10 nM 17β estradiol (E2, Sigma). The ERAP-1 peptide was added just before the E2 stimulation in the inhibition test.
Using Cell-Counting Kit-8 (CCK-8, Dojindo, Kumamoto, Japan), the cell proliferation assay was performed. […] Then, the absorbance at 450 nm was measured and the number of living cells in each well was calculated.
The cell proliferation assay was evaluated using Cell-Counting Kit-8 (CCK-8, Dojindo, Kumamoto, Japan). […] Then, 100 μl from each well was moved to a 96-well plate, and the absorbance at 450 nm was measured with a microplate reader.

[2] = tested on: ZR75-1 cells; test: E2-independent cell proliferation, ZR-75-1; settings: 10 μM every 24 hours, at 96 hours
Experimental: FIG. 16 is a diagram illustrating the influence of the ERAP1-peptide on proliferation of E2-independent breast cancer cells. […] Each of the cells was treated with 10 μM ERAP1-peptide for 24 hours (MCF-7), for 48 hours (KPL-3C) or for 96 hours (ZR-75-1 and T47D).
MCF-7 cells or ZR-75-1 cells were seeded in 2×10^4/well, and KPL-3C cells were seeded in 1×10^4/well on a 48-well plate, and stood in a CO2 incubator for 24 hours. Then, for MCF-7 cells, the culture medium was exchanged with DMEM/F12 culture medium containing 10% FBS (Nichirei Biosciences, Tokyo, Japan), 1% antibiotic/antimycotic solution (Invitrogen), 0.1 mM NEAA48 (invitrogen), 1 mM sodium pyruvate and 10 μg/ml insulin (Sigma, St. Louis, Mo., USA) and not containing phenol red, and the cells were further pre-cultured for 24 hours. On the other hand, for ZR-75-1 cells and KPL-3C cells, the culture media were exchanged with RPMI culture media containing 10% FBS and 1% antibiotic/antimycotic solution and not containing phenol red, and the cells were further pre-cultured for 24 hours. The supernatant was removed, and then 200 μl of the ERAP1-peptide in each concentration or tamoxifen as a positive control was added, respectively and the mixture was reacted for 24 hours. […] Then, 100 μl from each well was moved to a 96-well plate, and the absorbance at 450 nm was measured with a microplate reader.

[3] = tested on: HDAC1; test: Deacetylation (HDAC) assay of anti-PHB2 immunoprecipitate; settings: MCF-7, 24 hours
Experimental: FIG. 4-4 is a diagram illustrating that the ERAP1-peptide promotes nuclear translocation of PHB2. […] MCF-7 cells were treated with the ERAP1-peptide and/or 10 nM E2 for 24 hours. Then, the nuclear fraction was immunoprecipitated with anti-ERα antibody or an anti-PHB2 antibody. […] MCF-7 cells were treated with the ERAP1-peptide and/or E2 for 24 hours. Then, the cell lysate was immunoprecipitated with anti-PHB2 antibody. Subsequently, the HDAC activity in the immunoprecipitate was measured with a commercially available kit. The nuclear extract from the HeLa cells and PBS were used as a positive control (P) and as negative control (N), respectively.
HDAC assay was performed using HDAC Fluorescent Activity Assay/Drug Discovery Kit (Enzo Life Sciences, Plymouth Meeting, Pa., USA) in accordance with the instruction of the manufacturer. MCF-7 cells were treated with E2 and/or the ERAP1 peptide(s) for 24 hours in a 6-well plate. Then, the cell extract was immunoprecipitated with anti-PHB2 antibody. Furthermore, the immunoprecipitated cell extract was incubated for 30 minutes in the presence of a substrate at 30° C. After the incubation, the reaction was stopped, and the fluorescence was analyzed with a microplate fluorometer (Infinite M200, Tecan, Mannedorf, Switzerland).

CSCC[C@H](NC(=O)[C@H](CCC(N)=O)NC(=O)[C@H](CCCNC(=N)N)NC(=O)[C@H](CCCNC(=N)N)NC(=O)[C@H](CCCNC(=N)N)NC(=O)[C@H](CCCNC(=N)N)NC(=O)[C@H](CCCNC(=N)N)NC(=O)[C@H](CCCNC(=N)N)NC(=O)[C@H](CCCNC(=N)N)NC(=O)[C@H](CCCNC(=N)N)NC(=O)[C@H](CCCNC(=N)N)NC(=O)[C@H](CCCNC(=N)N)NC(=O)[C@@H](N)CCCNC(=N)N)C(=O)N[C@@H](CC(C)C)C(=O)N[C@@H](CO)C(=O)N[C@@H](CC(=O)O)C(=O)N[C@@H](CC(C)C)C(=O)N[C@H](C(=O)N[C@@H](CC(C)C)C(=O)N[C@@H](CCC(N)=O)C(=O)N[C@@H](CC(C)C)C(=O)N[C@@H](CCCNC(=N)N)C(=O)N[C@@H](CCC(N)=O)C(=O)N[C@@H](CCCNC(=N)N)C(=O)O)[C@@H](C)O [ERAP1-peptide]
E2-dependent cell proliferation ([1]; 10 nM E2, up to 24 hours): dose-dependently suppressed the E2-dependent cell proliferation | proliferation of the E2-dependent breast cancer cells, repeated administration ([1]; 5 μM and 10 μM, every 24 hours for four days): completely suppressed | duration of E2-dependent proliferation suppression effect ([1]; 10 μM single addition): complete E2-dependent proliferation suppression effect was recognized up to 24 hours | cell proliferation in the absence of E2 [2]: significant cell proliferation suppression effect | activity of HDAC1 [3]: accelerated dose-dependently
